In one experiment the test system is MS751 cells. The experiment can be described thus: MTT cell proliferation assay, MS751. To be noted: read-out: MTT Assay IC50, MS751. It is filed as cell-based, human. Summed up:
(§1)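 Seeding 5,000-10,000 cells/well, overnight attachment; 8 concs, 1 nM–30 μM. MTT ~4 h, formazan solubilized, OD 490 nm. % inhibition vs negative control, mostly duplicate, mean±SE.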

The next experiment concerns Z138 cells. The experiment is described as follows: MTT cell proliferation assay, Z138. It counts as cell-based. To be noted: read-out: MTT Assay IC50, Z138. The essentials: as §1
On the technique in general: Tetrazolium assays rely on reduction of a dye to a coloured formazan, in cell work by metabolically active cells.

Another experiment relates to 3T3 cells. The experiment is described as follows: MTT cell proliferation assay, 3T3. It counts as cell-based, mouse. To be noted: read-out: MTT Assay IC50, 3T3. The essentials:
as §1

Where [1] appears, read: Homo sapiens, MS751, MS751 cells, eight concentrations 1 nM to 30 μM, incubation approximately 64-72 hours.
Setting [2] is: Homo sapiens, Z-138, Z138 cells, eight concentrations 1 nM to 30 μM, incubation approximately 64-72 hours.
The mark [3] stands for this setting: Mus musculus, NIH3T3, 3T3 cells, eight concentrations 1 nM to 30 μM, incubation approximately 64-72 hours.
Setting [4] is: Homo sapiens, MS751, MS751 cells, approximately 64-72 hours incubation.
[5] abbreviates: Homo sapiens, Z-138, Z138 cells, approximately 64-72 hours incubation.
Where [6] appears, read: Mus musculus, NIH3T3, 3T3 cells, approximately 64-72 hours incubation.

SMILES strings stand for the structures. Like-named read-outs stand apart in the source and are kept apart here. A value given as a limit tells only on which side of the number the result lay.

As usually defined, the IC50 is the concentration at which inhibition is half-maximal. For the compound `CC(=O)c1ccc(-c2cc(Cl)c3c(c2)CC(CNC(=O)/C=C\c2cccnc2)O3)s1` (single isomer, unassigned) [Compound 313, (Z)-N-((5-(5-acetylthiophen-2-yl)-7-chloro-2,3-dihydrobenzofuran-2-yl)methyl)-3-(pyridin-3-yl)acrylamide], the IC50 with MS751 cells (MS751 cells, approximately 64-72 hours incubation) was 0.1 to 5 µM; with Z138 cells (Z138 cells, approximately 64-72 hours incubation), 0.1 to 5 µM; in the experiment with 3T3 cells (3T3 cells, approximately 64-72 hours incubation) it was over 30 µM.

Take `CS(=O)(=O)c1cncc(-c2cc(Cl)c3c(c2)CC(CNC(=O)/C=C/c2cccnc2)O3)c1` (stereo not drawn) [Compound 77, (E)-N-((7-chloro-5-(5-(methylsulfonyl)pyridin-3-yl)-2,3-dihydrobenzofuran-2-yl)methyl)-3-(pyridin-3-yl)acrylamide]: the IC50 in the experiment on MS751 cells (setting [1]), with Z138 cells (setting [2]) and with 3T3 cells (setting [3]) was 0.1 to 5 µM throughout.

As for `CC(C)(O)c1ccc(-c2cc(Cl)c3c(c2)CC(CNC(=O)/C=C/c2cccnc2)O3)s1` (stereo not drawn) [Compound 304, (E)-N-((7-chloro-5-(5-(2-hydroxypropan-2-yl)thiophen-2-yl)-2,3-dihydrobenzofuran-2-yl)methyl)-3-(pyridine-3-yl)acrylamide], the concentration for half-maximal inhibition (IC50) with MS751 cells (setting [4]) is under 0.1 µM; in the experiment with Z138 cells (setting [5]), under 0.1 µM; with 3T3 cells (setting [6]) it was 0.1 to 5 µM.

`Nc1ccc(CNC(=O)/C=C/C2Cc3cc(-c4ccc(C(=O)N5CC[C@@H](F)C5)cc4)cc(Cl)c3O2)cn1` (stereo partly drawn) [Compound 358, (E)-N-((6-aminopyridin-3-yl)methyl)-3-(7-chloro-5-(4-((R)-3-fluoropyrrolidine-1-carbonyl)phenyl)-2,3-dihydrobenzofuran-2-yl)acrylamide]: the half-maximal inhibitory concentration (IC50) in the experiment on MS751 cells (setting [4]) is 0.1 to 5 µM; with Z138 cells (setting [5]), over 30 µM; with 3T3 cells (setting [6]) it was 0.1 to 5 µM.

For `CC(=O)c1ccc(-c2cc(Cl)c3c(c2)CC(CNC(=O)/C=C/c2c(C)noc2C)O3)s1` (stereo not drawn) [Compound 147, (E)-N-((5-(5-acetylthiophen-2-yl)-7-chloro-2,3-dihydrobenzofuran-2-yl)methyl)-3-(3,5-dimethylisoxazol-4-yl)acrylamide], the IC50 in the experiment with MS751 cells (setting [1]) was 0.1 to 5 µM; with Z138 cells (setting [2]) it was 0.1 to 5 µM; in the experiment with 3T3 cells (setting [3]) it was over 30 µM.

As to `O=C(/C=C/C1Cc2cc(-c3ccc(C(=O)N4CCOCC4)cc3)cc(Cl)c2O1)NCc1cccnc1` (stereo not drawn) [Compound 334, (E)-3-(7-Chloro-5-(4-(morpholine-4-carbonyl)phenyl)-2,3-dihydrobenzofuran-2-yl)-N-(pyridin-3-ylmethyl)acrylamide], the concentration for half-maximal inhibition (IC50) fell in the range of 0.1 to 5 µM in the experiment with MS751 cells (setting [4]), 0.1 to 5 µM with Z138 cells (setting [5]) and 5 to 30 µM in the experiment on 3T3 cells (setting [6]).

Regarding `[2H]C1([2H])c2cc(-c3ccc(C(=O)N4CCOCC4)cc3)cc(Cl)c2OC1CNC(=O)/C=C/c1ccc(N)nc1` (stereo not drawn) [Compound 365, (E)-3-(6-aminopyridin-3-yl)-N-((7-chloro-3,3-dideutero-5-(4-(morpholine-4-carbonyl)phenyl)-2,3-dihydrobenzofuran-2-yl)methyl)acrylamide], the half-maximal inhibitory concentration (IC50) with MS751 cells (setting [4]) is under 0.1 µM; with Z138 cells (setting [5]) it was 0.1 to 5 µM; with 3T3 cells (setting [6]) it was under 0.1 µM.

Consider `CC(=O)c1ccc(-c2cc(Cl)c3c(c2)CC(CNC(=O)/C=C/c2c(C)nc4sc(C)cn24)O3)s1` (stereo not drawn) [Compound 161, (E)-N-((5-(5-acetylthiophen-2-yl)-7-chloro-2,3-dihydrobenzofuran-2-yl)methyl)-3-(2,6-dimethylimidazo[2,1-b]thiazol-5-yl)acrylamide], for which the IC50 in the experiment with MS751 cells (setting [1]), in the experiment on Z138 cells (setting [2]) and in the experiment with 3T3 cells (setting [3]) was over 30 µM throughout.

On to `CCOC(=O)c1cccc(-c2cc(Cl)c3c(c2)CC(CNC(=O)/C=C/c2cccnc2)O3)c1` (stereo not drawn) [Compound 52, (E)-ethyl 3-(7-chloro-2-((3-(pyridin-3-yl)acrylamido)methyl)-2,3-dihydrobenzofuran-5-yl)benzoate], for which the half-inhibitory concentration (IC50) with MS751 cells (setting [1]), in the experiment on Z138 cells (setting [2]) and in the experiment with 3T3 cells (setting [3]) was 0.1 to 5 µM throughout.

Take `CC(=O)c1sc(-c2cc(Cl)c3c(c2)CC(CNC(=O)/C=C/c2ccc(N)nc2)O3)c(C)c1C` (stereo not drawn) [Compound 322]: the results for the half-inhibitory concentration (IC50) in the experiment on MS751 cells (setting [4]), in the experiment with Z138 cells (setting [5]) and in the experiment with 3T3 cells (setting [6]) were under 0.1 µM, under 0.1 µM and 5 to 30 µM, respectively.

For the compound `CC(=O)c1ccc(-c2cc(Cl)c3c(c2)CC(CNC(=O)/C=C/c2ccc(C)nc2)O3)s1` (stereo not drawn) [Compound 146, (E)-N-((5-(5-acetylthiophen-2-yl)-7-chloro-2,3-dihydrobenzofuran-2-yl)methyl)-3-(6-methylpyridin-3-yl)acrylamide], the 50% inhibitory concentration (IC50) was 5 to 30 µM in the experiment on MS751 cells (setting [1]), over 30 µM in the experiment with Z138 cells (setting [2]) and over 30 µM with 3T3 cells (setting [3]).

Turning to `CC(=O)c1ccc(-c2cc(Cl)c3c(c2)CC(CNC(=O)/C=C/c2cnn(C)c2)O3)s1` (stereo not drawn) [Compound 149, (E)-N-((5-(5-acetylthiophen-2-yl)-7-chloro-2,3-dihydrobenzofuran-2-yl)methyl)-3-(1-methyl-1H-pyrazol-4-yl)acrylamide], the IC50 in the experiment with MS751 cells (setting [1]), in the experiment with Z138 cells (setting [2]) and with 3T3 cells (setting [3]) was over 30 µM each time.

Turning to `CC(=O)c1ccc(-c2cc(Cl)c3c(c2)CC(CNC(=O)/C=C/c2cn(C)c4ccccc24)O3)s1` (stereo not drawn) [Compound 189, (E)-N-((5-(5-acetylthiophen-2-yl)-7-chloro-2,3-dihydrobenzofuran-2-yl)methyl)-3-(1-methyl-1H-indol-3-yl)acrylamide], the 50% inhibitory concentration (IC50) with MS751 cells (setting [1]), in the experiment with Z138 cells (setting [2]) and in the experiment on 3T3 cells (setting [3]) was over 30 µM in each case.

For `COc1cccc(-c2cc(Cl)c3c(c2)CC(CNC(=O)/C=C/c2cccnc2)O3)c1F` (stereo not drawn) [Compound 39, (E)-N-((7-chloro-5-(2-fluoro-3-methoxyphenyl)-2,3-dihydrobenzofuran-2-yl)methyl)-3-(pyridin-3-yl)acrylamide], the IC50 in the experiment with MS751 cells (setting [1]), with Z138 cells (setting [2]) and in the experiment on 3T3 cells (setting [3]) was 0.1 to 5 µM throughout.

Take `CC(=O)c1ccc(-c2cc(Cl)c3c(c2)CC(CNC(=O)/C=C/c2ccccc2N)O3)s1` (stereo not drawn) [Compound 110, (E)-N-((5-(5-acetylthiophen-2-yl)-7-chloro-2,3-dihydrobenzofuran-2-yl)methyl)-3-(2-aminophenyl)acrylamide]: the IC50 with MS751 cells (setting [1]), with Z138 cells (setting [2]) and in the experiment with 3T3 cells (setting [3]) was over 30 µM throughout.

`CC(=O)c1ccc(-c2cc(Cl)c3c(c2)CC(CN(C)C(=O)/C=C/c2cccnc2)O3)s1` (stereo not drawn) [Compound 125, (E)-N-((5-(5-acetylthiophen-2-yl)-7-chloro-2,3-dihydrobenzofuran-2-yl)methyl)-N-methyl-3-(pyridin-3-yl)acrylamide]: the IC50 in the experiment with MS751 cells (setting [1]), in the experiment on Z138 cells (setting [2]) and in the experiment on 3T3 cells (setting [3]) was 5 to 30 µM throughout.

On to `Nc1ccc(/C=C/C(=O)NCC2Cc3cc(-c4ccc(C(=O)N5CC(F)(F)C5)c(F)c4)cc(Cl)c3O2)cn1` (stereo not drawn) [Compound 336, (E)-3-(6-aminopyridin-3-yl)-N-((7-chloro-5-(4-(3,3-difluoroazetidine-1-carbonyl)-3-fluorophenyl)-2,3-dihydrobenzofuran-2-yl)methyl)acrylamide], for which the IC50 in the experiment on MS751 cells (setting [4]) was under 0.1 µM; in the experiment with Z138 cells (setting [5]) it was under 0.1 µM; with 3T3 cells (setting [6]), 0.1 to 5 µM.

As to `Nc1ccc(/C=C/C(=O)NCC2Cc3cc(-c4ccc(C(=O)N5CCOCC5)cn4)cc(Cl)c3O2)cn1` (stereo not drawn) [Compound 333, (E)-3-(6-Aminopyridin-3-yl)-N-((7-chloro-5-(5-(morpholine-4-carbonyl)pyridin-2-yl)-2,3-dihydrobenzofuran-2-yl)methyl)acrylamide], the IC50 in the experiment with MS751 cells (setting [4]) is under 0.1 µM; in the experiment with Z138 cells (setting [5]), under 0.1 µM; with 3T3 cells (setting [6]), 5 to 30 µM.
